Laboratory results as given in paper PMC3520974, “Differential Dynamic Engagement within 24 SH3 Domain: Peptide Complexes Revealed by Co-Linear Chemical Shift Perturbation Analysis” (PLoS ONE, 2012).

T1: Abp1p SH3 domain (SH3 domain from the yeast Actin Binding Protein 1) (yeast, UniProt P15891 532-592)
T1 construct: 15N-labelled for the NMR work; also called AbpSH3
T1 sequence (looked up): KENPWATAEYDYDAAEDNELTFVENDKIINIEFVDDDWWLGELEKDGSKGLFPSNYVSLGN

B1: PRR1, 15-residue peptide found N-terminal to AbpSH3 (residues 516 to 530 in Abp1p) (peptide, UniProt P15891 516-530, looked up)
peptide: Ac-AAPPPPPRRATPEKK-NH2
notes: residues 516 to 530 of yeast Abp1p, proline-rich region N-terminal to the SH3 domain, 15 residues; source: synthetic peptide (Biomer tech), purified to greater than 95% by HPLC

Key:
[1] = test system: Abp1p SH3 domain (AbpSH3); assay: Co-linear chemical shift perturbation (CCSP) analysis of peptide-saturated AbpSH3 complexes by NMR; type: binding, yeast; settings: rank among the 24 complexes; >99% peptide-saturated
Description: NMR experiments were carried out at 30°C on Varian 500 MHz spectrometers equipped with pulsed field gradients and a triple resonance probe with actively shielded z-gradients. Data were processed and analyzed using nmrPipe/nmrDraw and nmrView. All spectra were recorded in 50 mM sodium phosphate, 100 mM NaCl, 1 mM EDTA pH 7.0. ^1H-^15N HSQC spectra were collected using standard methods. ^1H-^13C HSQC spectra were recorded using constant time HSQC experiments.
AbpSH3 complexes were assigned using the established assignments of ArkA-bound and free AbpSH3 [8]; serial peptide additions were used to monitor the direction that the peaks moved to assign the final position of the SH3 resonances. […] The assignments were also compared to the previously determined ArkA-AbpSH3 complex resonances. […]
The combined ^1H and ^15N chemical shift differences (in ppm) between each pair of resonances that define the lines x, y and z were calculated using the following expression: δΔ = √((Nppm shift * 0.1)^2+(Hppm shift)^2), where Nppm shift is the difference in ppm in the nitrogen dimension and Hppm is the difference in ppm in the proton dimension. The perpendicular distance (p) between the resonance and the CCSP line was calculated in the following way: p = √(x^2−s^2), where x = length of line connecting resonance to peptide free resonance and s = scalar projection. […]

[2] = test system: Abp1p SH3 domain (AbpSH3); assay: Isothermal titration calorimetry of peptide binding to AbpSH3; design: species or system yeast
Description: Binding isotherms were recorded as previously at 30°C [23]. Enthalpy changes were measured at 4 different temperatures (20, 25, 30, 35°C) and the slopes of temperature vs. enthalpy change were fit to yield the change in heat capacity. All samples were in 50 mM sodium phosphate, 100 mM NaCl, 1 mM EDTA pH 7.0. Errors are ±95% confidence intervals except the ΔCP values, which report the standard error of the least squared fit to the data (ΔH vs. temperature).

[3] = test system: Abp1p SH3 domain (AbpSH3); assay: Hydrogen exchange protection of AbpSH3 complexes by NMR; type: binding, yeast; settings: sum of log amide protection factors of SII residues; 99% peptide-saturated 100 µM AbpSH3 in D2O, pH 7.0, 18°C, HSQC every 20 minutes over 24 hours
Description: All hydrogen exchange experiments were conducted in 50 mM sodium phosphate, 100 mM NaCl, 1 mM EDTA pH 7.0, 18°C. Based on the known binding constants, sufficient peptide was added to 100 µM AbpSH3 such that 99% saturation was achieved (this was confirmed by comparing the chemical shifts of previously recorded peptide-saturated samples) for 7 different AbpSH3 complexes (Table S4). The samples were lyophilized and resuspended in D2O, and ^1H-^15N HSQC spectra were recorded every 20 minutes over a period of 24 hours. Many peaks disappeared over time. Intensities of peaks were fit to exponential curves, to yield observed rate constants (kexchange) for each amide group. The rate constant was converted to log protection factor (P), log10(kintrinsic/kexchange) using values for amide protection of free amino acids (http://hx2.med.upenn.edu/download.html). […] These residues became protected to different degrees in the different complexes although they all still exchanged sufficiently fast for their rates to be accurately calculated within the timeframe of the experiment. The biggest difference for the sum between complexes is about 20, which corresponds to a residue ΔΔG of −2.8 kcal/mol, which is approximately the difference between the strongest and weakest peptide binding energy.

[4] = target: T1, Abp1p SH3 domain (SH3 domain from the …); assay: NMR titration; 1H-15N HSQC of AbpSH3 (70-100 µM) with serial peptide additions to 99% or greater saturation; 30°C; 50 mM sodium phosphate, 100 mM NaCl, 1 mM EDTA pH 7.0; settings: both partners purified

| Molecule | CCSP values in AbpSH3 [1] | change in heat capacity (ΔCp) on complex formation ([2]; ITC, enthalpy changes at 20, 25, 30, 35°C, slope of ΔH vs. temperature, 50 mM sodium phosphate, 100 mM NaCl, 1 mM EDTA pH 7.0) [kcal/mol K] | binding energy ([2]; rank among the 24 complexes, ITC at 30°C) | SII hydrogen exchange protection (Σ LogP in SII) [3] | binding result [4] |
| --- | --- | --- | --- | --- | --- |
| PRR: 15-residue peptide found N-terminal to AbpSH3 (residues 516 to 530 in Abp1p) (Ac-AAPPPPPRRATPEKK-NH2) | lowest | ~0 | the lowest measured | ~0 |  |
| B1 |  |  |  |  | binds |
